In US10406207B2, “Peptide conjugates of GLP-1 receptor agonists and gastrin and their use” (priority 2010, dated 2019):
Read-outs that look alike come from different tables or passages of the source. Numbered stars: 1 amine (or outer) side, 2 acyl side, 3 side chain; on linkers, the order of the positions; unused ones are H or OH. Square brackets hold non-standard residues; d marks the D form. Side chains are listed from the residue outwards. Peptide text beside a SMILES is read from it. * marks the point of attachment. γGlu = O=C(O)[C@H](CCC(=O)[*:2])N[*:1]; Palmitoyl = CCCCCCCCCCCCCCCC(=O)*; Orn = NCCC[C@H](N)C(=O)O; AEEA = NCCOCCOCC(=O)O

Tests used:
human CCK-B R = target: T1, human CCK-B R (Homo sapiens, UniProt P32239); assay: Human CCK-B receptor efficacy assay (AlphaScreen SureFire p-ERK); assay type: cell-based; conditions: read-out: hCCK-B R EC50
T1 construct: expressed in transfected cells
T1 sequence (P32239 1-447): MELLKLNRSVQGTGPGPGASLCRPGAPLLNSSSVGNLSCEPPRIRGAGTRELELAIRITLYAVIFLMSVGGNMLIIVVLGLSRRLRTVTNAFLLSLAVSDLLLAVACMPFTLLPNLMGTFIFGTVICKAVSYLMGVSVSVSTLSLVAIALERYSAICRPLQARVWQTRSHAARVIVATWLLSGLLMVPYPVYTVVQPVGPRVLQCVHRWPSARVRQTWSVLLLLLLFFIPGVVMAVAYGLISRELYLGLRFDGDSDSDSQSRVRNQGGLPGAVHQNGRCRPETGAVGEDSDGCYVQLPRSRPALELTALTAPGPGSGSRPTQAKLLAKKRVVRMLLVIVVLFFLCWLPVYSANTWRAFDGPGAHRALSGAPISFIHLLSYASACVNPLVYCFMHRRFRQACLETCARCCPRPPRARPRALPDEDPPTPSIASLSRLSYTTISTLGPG
Description: CCK-B Receptor (CCK-B R) Efficacy Assay:
In vitro effects of peptide conjugates of the invention were estimated by measuring p-ERK (using the AlphaScreen™ SureFire p-ERK assay) in HEK293 cells stably expressing the human and mouse CCK-B R (high-affinity Gastrin receptor), respectively. The Gastrin receptor efficacy assays (AlphaScreen™ SureFire p-ERK assay) were performed as follows:
The CCK-B R expressing cells in question were seeded at 20,000 cells/well in 100 μl growth medium [DMEM, 10% FCS, Penicillin (100 IU/ml), Streptomycin (100 μg/ml)] in a 96-well plate coated with poly-D-lysine. The cells were incubated in an incubator (37° C., 5% 002) for two days.
The growth medium was changed to 80 μl of serum-free medium [DMEM, Penicillin (100 IU/ml), Streptomycin (100 μg/ml)] per well, and incubation of the cells was continued for 19 hours in the incubator (37° C., 5% CO2).
After 19 hours, 20 μl of serum-free medium containing one of 5 different concentrations of peptide conjugate was added (performed in triplicate for each concentration), and the cells were incubated for 5 min. at room temperature. • 2. The stimulation medium was discarded by quickly turning the plate upside down, and 60 μl 1× lysis buffer (from the SureFire assay kit) was added per well. • 3. The plate was shaken on a plate-shaker for 5 min and then placed on ice. • 4. SureFire P-ERK assay: 4 μl of each supernatant was transferred to a 384 well proxiplate (Perkin Elmer). • 5. 4 μl of each of the two control lysates (unstimulated and stimulated) were added to the proxiplate in duplicate. • 6. […] 7 μl of the latter reaction buffer+activation buffer+beads per well were added in the proxiplate, the mix being resuspended carefully before addition to the wells. • 7. The plate was incubated for 2 hours in a dark box in a 22° C. incubator. • 8. The plate was analyzed on an Envision™ light-emission plate reader (Perkin-Elmer) using the appropriate reading program (Perkin-Elmer).

human GLP-1 R = target: T2, human GLP-1 R (Homo sapiens, UniProt P43220); assay: Human GLP-1 receptor efficacy assay (cAMP induction, FlashPlate); assay type: cell-based; conditions: read-out: hGLP-1 R EC50
T2 construct: expressed in transfected cells
T2 sequence (P43220 24-463): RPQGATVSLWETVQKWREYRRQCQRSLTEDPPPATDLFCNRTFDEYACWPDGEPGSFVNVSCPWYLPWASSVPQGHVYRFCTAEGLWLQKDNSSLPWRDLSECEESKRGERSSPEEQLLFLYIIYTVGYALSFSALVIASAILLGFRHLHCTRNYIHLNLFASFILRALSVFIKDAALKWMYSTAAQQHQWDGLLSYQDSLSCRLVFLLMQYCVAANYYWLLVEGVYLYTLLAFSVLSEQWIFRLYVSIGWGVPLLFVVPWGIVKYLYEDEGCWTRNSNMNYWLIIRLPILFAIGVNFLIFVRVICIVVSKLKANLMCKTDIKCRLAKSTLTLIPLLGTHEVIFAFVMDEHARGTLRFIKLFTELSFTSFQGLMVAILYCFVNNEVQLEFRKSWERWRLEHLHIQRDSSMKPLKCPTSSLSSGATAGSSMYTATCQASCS
Description: On the day of analysis, growth medium was removed and the cells were washed once with 200 μl Tyrode buffer [Tyrode's Salts (9.6 g/l), 10 mM HEPES, pH 7.4]. […] The reaction was stopped by addition of 25 μl 0.5 M HCl and incubated on ice for 60 min.

SMILES	EC50 (human CCK-B R; Table 3)	EC50 (human GLP-1 R; Table 3)	EC50 (human CCK-B R; Table 2)	EC50 (human GLP-1 R; Table 2)
CCCCCCCCCCCCCCCC(=O)N[C@@H](CCC(=O)NCCCC[C@H](NC(=O)[C@H](C)NC(=O)[C@H](C)NC(=O)[C@H](CCC(N)=O)NC(=O)CNC(=O)[C@H](CCC(=O)O)NC(=O)[C@H](CC(C)C)NC(=O)[C@H](Cc1ccc(O)cc1)NC(=O)[C@H](CO)NC(=O)[C@H](CO)NC(=O)[C@@H](NC(=O)[C@H](CC(=O)O)NC(=O)[C@H](CO)NC(=O)[C@@H](NC(=O)[C@H](Cc1ccccc1)NC(=O)[C@@H](NC(=O)CNC(=O)[C@H](CCC(=O)O)NC(=O)C(C)(C)NC(=O)[C@@H](N)Cc1c[nH]cn1)[C@@H](C)O)[C@@H](C)O)C(C)C)C(=O)N[C@@H](CCC(=O)O)C(=O)N[C@@H](Cc1ccccc1)C(=O)N[C@H](C(=O)N[C@@H](C)C(=O)N[C@@H](Cc1c[nH]c2ccccc12)C(=O)N[C@@H](CC(C)C)C(=O)N[C@H](C(=O)N[C@@H](CCCNC(=N)N)C(=O)NCC(=O)N[C@@H](CCCNC(=N)N)C(=O)NCC(=O)NCCOCCOCC(=O)NCCOCCOCC(=O)N[C@@H](Cc1ccc(O)cc1)C(=O)NCC(=O)N[C@@H](Cc1c[nH]c2ccccc12)C(=O)N[C@@H](CC(C)C)C(=O)N[C@@H](CC(=O)O)C(=O)N[C@@H](Cc1ccccc1)C(N)=O)C(C)C)[C@@H](C)CC)C(=O)O [Compound 111, [Aib8,Arg34,Lys(Hexadecanoyl-isoGlu)26]GLP-1(7-37)-Peg3-Peg3-[Leu4]Gastrin6]	59 nM	0.088 nM		
CCCCCCCCCCCCCCCC(=O)N[C@@H](CCC(=O)NCCCC[C@H](NC(=O)CNC(=O)[C@H](CCCNC(=N)N)NC(=O)[C@@H](NC(=O)[C@H](CC(C)C)NC(=O)[C@H](Cc1c[nH]c2ccccc12)NC(=O)[C@H](C)NC(=O)[C@@H](NC(=O)[C@H](Cc1ccccc1)NC(=O)[C@H](CCC(=O)O)NC(=O)[C@H](CCCNC(=N)N)NC(=O)[C@H](C)NC(=O)[C@H](C)NC(=O)[C@H](CCC(N)=O)NC(=O)CNC(=O)[C@H](CCC(=O)O)NC(=O)[C@H](CC(C)C)NC(=O)[C@H](Cc1ccc(O)cc1)NC(=O)[C@H](CO)NC(=O)[C@H](CO)NC(=O)[C@@H](NC(=O)[C@H](CC(=O)O)NC(=O)[C@H](CO)NC(=O)[C@@H](NC(=O)[C@H](Cc1ccccc1)NC(=O)[C@@H](NC(=O)CNC(=O)[C@H](CCC(=O)O)NC(=O)[C@H](C)NC(=O)[C@@H](N)Cc1c[nH]cn1)[C@@H](C)O)[C@@H](C)O)C(C)C)[C@@H](C)CC)C(C)C)C(=O)NCC(=O)NCCOCCOCC(=O)NCCOCCOCC(=O)N[C@@H](Cc1ccc(O)cc1)C(=O)NCC(=O)N[C@@H](Cc1c[nH]c2ccccc12)C(=O)N[C@@H](CC(C)C)C(=O)N[C@@H](CC(=O)O)C(=O)N[C@@H](Cc1ccccc1)C(N)=O)C(=O)O [Compound 108, [Arg26,34,Lys(Hexadecanoyl-isoGlu)36]GLP-1(7-37)-Peg3-Peg3-[Leu4]Gastrin6] (H-HAEGTFTSDVSSYLEGQAAREFIAWLVRGK([γGlu-Palmitoyl])G[AEEA][AEEA]YGWLDF-NH2)	78 nM	0.11 nM		
CC[C@H](C)[C@H](NC(=O)[C@H](Cc1ccccc1)NC(=O)[C@H](CC(C)C)NC(=O)[C@H](CCCNC(=N)N)NC(=O)[C@@H](NC(=O)[C@H](C)NC(=O)[C@H](CCC(=O)O)NC(=O)[C@H](CCC(=O)O)NC(=O)[C@H](CCC(=O)O)NC(=O)[C@H](CC(C)C)NC(=O)[C@H](Cc1ccc(O)cc1)NC(=O)[C@H](CCCCN)NC(=O)[C@H](CO)NC(=O)[C@H](CC(C)C)NC(=O)[C@H](CCC(=O)O)NC(=O)[C@H](CO)NC(=O)[C@@H](NC(=O)[C@H](Cc1ccccc1)NC(=O)[C@@H](NC(=O)CNC(=O)[C@H](CCC(=O)O)NC(=O)CNC(=O)[C@@H](N)Cc1c[nH]cn1)[C@@H](C)O)[C@@H](C)O)C(C)C)C(=O)N[C@@H](CCC(=O)O)C(=O)N[C@@H](Cc1ccccc1)C(=O)N[C@@H](CC(C)C)C(=O)N[C@@H](CCCCN)C(=O)NCCOCCOCC(=O)N[C@@H](Cc1c[nH]c2ccccc12)C(=O)N[C@@H](CC(C)C)C(=O)N[C@@H](CC(=O)O)C(=O)N[C@@H](Cc1ccccc1)C(N)=O [Compound 97, [Glu9,Leu14,Phe25,Tyr13]Exendin-4(1-27)-Peg3-[Leu2]Gastrin4] (H-HGEGTFTSELSKYLEEEAVRLFIEFLK[AEEA]WLDF-NH2)			13 nM	0.06 nM
CC[C@H](C)[C@H](NC(=O)[C@H](Cc1ccccc1)NC(=O)[C@H](CC(C)C)NC(=O)[C@H](CCCNC(=N)N)NC(=O)[C@@H](NC(=O)[C@H](C)NC(=O)[C@H](CCC(=O)O)NC(=O)[C@H](CCC(=O)O)NC(=O)[C@H](CCC(=O)O)NC(=O)[C@H](CCSC)NC(=O)[C@H](Cc1ccc(O)cc1)NC(=O)[C@H](CCCCN)NC(=O)[C@H](CO)NC(=O)[C@H](CC(C)C)NC(=O)[C@H](CC(=O)O)NC(=O)[C@H](CO)NC(=O)[C@@H](NC(=O)[C@H](Cc1ccccc1)NC(=O)[C@@H](NC(=O)CNC(=O)[C@H](CCC(=O)O)NC(=O)CNC(=O)[C@@H](N)Cc1c[nH]cn1)[C@@H](C)O)[C@@H](C)O)C(C)C)C(=O)N[C@@H](CCC(=O)O)C(=O)N[C@@H](Cc1c[nH]c2ccccc12)C(=O)N[C@@H](CC(C)C)C(=O)N[C@@H](CCCCN)C(=O)N[C@@H](CC(N)=O)C(=O)NCCOCCOCC(=O)NCCOCCOCC(=O)N[C@@H](Cc1ccc(O)cc1)C(=O)NCC(=O)N[C@@H](Cc1c[nH]c2ccccc12)C(=O)N[C@@H](CC(C)C)C(=O)N[C@@H](CC(=O)O)C(=O)N[C@@H](Cc1ccccc1)C(N)=O [Compound 65, [Tyr13]Exendin-4(1-28)-Peg3-Peg3-[Leu4]Gastrin6] (H-HGEGTFTSDLSKYMEEEAVRLFIEWLKN[AEEA][AEEA]YGWLDF-NH2)			12 nM	0.046 nM
CC[C@H](C)[C@H](NC(=O)[C@H](Cc1ccccc1)NC(=O)[C@H](CC(C)C)NC(=O)[C@H](CCCNC(=N)N)NC(=O)[C@@H](NC(=O)[C@H](C)NC(=O)[C@H](CCC(=O)O)NC(=O)[C@H](CCC(=O)O)NC(=O)[C@H](CCC(=O)O)NC(=O)[C@H](CC(C)C)NC(=O)[C@H](Cc1ccc(O)cc1)NC(=O)[C@H](CCCCN)NC(=O)[C@H](CO)NC(=O)[C@H](CC(C)C)NC(=O)[C@H](CCC(=O)O)NC(=O)[C@H](CO)NC(=O)[C@@H](NC(=O)[C@H](Cc1ccccc1)NC(=O)[C@@H](NC(=O)CNC(=O)[C@H](CCC(=O)O)NC(=O)CNC(=O)[C@@H](N)Cc1c[nH]cn1)[C@@H](C)O)[C@@H](C)O)C(C)C)C(=O)N[C@@H](CCC(=O)O)C(=O)N[C@@H](Cc1ccccc1)C(=O)N[C@@H](CC(C)C)C(=O)N[C@@H](CCCCN)C(=O)NCCOCCOCC(=O)N[C@@H](CCCN)C(=O)N[C@@H](Cc1ccc(O)cc1)C(=O)NCC(=O)N[C@@H](Cc1c[nH]c2ccccc12)C(=O)N[C@@H](CC(C)C)C(=O)N[C@@H](CC(=O)O)C(=O)N[C@@H](Cc1ccccc1)C(N)=O [Compound 104, [Glu9,Leu14,Phe25,Tyr13]Exendin-4(1-27)-Peg3-Orn-[Leu4]Gastrin6] (H-HGEGTFTSELSKYLEEEAVRLFIEFLK[AEEA][Orn]YGWLDF-NH2)			8.8 nM	0.087 nM
CC[C@H](C)[C@H](NC(=O)[C@H](Cc1ccccc1)NC(=O)[C@H](CC(C)C)NC(=O)[C@H](CCCNC(=N)N)NC(=O)[C@@H](NC(=O)[C@H](C)NC(=O)[C@H](CCC(=O)O)NC(=O)[C@H](CCC(=O)O)NC(=O)[C@H](CCC(=O)O)NC(=O)[C@H](CC(C)C)NC(=O)[C@H](Cc1ccc(O)cc1)NC(=O)[C@H](CCCCN)NC(=O)[C@H](CO)NC(=O)[C@H](CC(C)C)NC(=O)[C@H](CCC(=O)O)NC(=O)[C@H](CO)NC(=O)[C@@H](NC(=O)[C@H](Cc1ccccc1)NC(=O)[C@@H](NC(=O)CNC(=O)[C@H](CCC(=O)O)NC(=O)CNC(=O)[C@@H](N)Cc1c[nH]cn1)[C@@H](C)O)[C@@H](C)O)C(C)C)C(=O)N[C@@H](CCC(=O)O)C(=O)N[C@@H](Cc1ccccc1)C(=O)N[C@@H](CC(C)C)C(=O)N[C@@H](CCCCN)C(=O)N[C@@H](CCCN)C(=O)NCCOCCOCC(=O)N[C@@H](Cc1ccc(O)cc1)C(=O)NCC(=O)N[C@@H](Cc1c[nH]c2ccccc12)C(=O)N[C@@H](CC(C)C)C(=O)N[C@@H](CC(=O)O)C(=O)N[C@@H](Cc1ccccc1)C(N)=O [Compound 103, [Glu9,Leu14,Phe25,Tyr13]Exendin-4(1-27)-Orn-Peg3-[Leu4]Gastrin6] (H-HGEGTFTSELSKYLEEEAVRLFIEFLK[Orn][AEEA]YGWLDF-NH2)			100 nM	0.12 nM
CC[C@H](C)[C@H](NC(=O)[C@H](Cc1ccccc1)NC(=O)[C@H](CC(C)C)NC(=O)[C@H](CCCNC(=N)N)NC(=O)[C@@H](NC(=O)[C@H](C)NC(=O)[C@H](CCC(=O)O)NC(=O)[C@H](CCC(=O)O)NC(=O)[C@H](CCC(=O)O)NC(=O)[C@H](CC(C)C)NC(=O)[C@H](Cc1ccc(O)cc1)NC(=O)[C@H](CCCCN)NC(=O)[C@H](CO)NC(=O)[C@H](CC(C)C)NC(=O)[C@H](CCC(=O)O)NC(=O)[C@H](CO)NC(=O)[C@@H](NC(=O)[C@H](Cc1ccccc1)NC(=O)[C@@H](NC(=O)CNC(=O)[C@H](CCC(=O)O)NC(=O)CNC(=O)[C@@H](N)Cc1c[nH]cn1)[C@@H](C)O)[C@@H](C)O)C(C)C)C(=O)N[C@@H](CCC(=O)O)C(=O)N[C@@H](Cc1ccccc1)C(=O)N[C@@H](CC(C)C)C(=O)N[C@@H](CCCCN)C(=O)NCCOCCOCC(=O)NCCOCCOCC(=O)N[C@@H](Cc1ccc(O)cc1)C(=O)NCC(=O)N[C@@H](Cc1c[nH]c2ccccc12)C(=O)N[C@@H](CC(C)C)C(=O)N[C@@H](CC(=O)O)C(=O)N[C@@H](Cc1ccccc1)C(N)=O [Compound 88, [Glu9,Leu14,Phe25,Tyr13]Exendin-4(1-27)-Peg3-Peg3-[Leu4]Gastrin6] (H-HGEGTFTSELSKYLEEEAVRLFIEFLK[AEEA][AEEA]YGWLDF-NH2)			20 nM	0.046 nM
